This is an account of results in the supplement of paper PMC11061612.

Common to all, as to experiment: combination Emax (second highest fraction inhibited in the dose matrix, 72 h); higher = more inhibition; extreme values may be limits of the assay
The subject of one assay is CAL-78 (Chondrosarcoma). In outline: (§1)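 Bliss excess equals the observed combination effect minus the expected value EA + EB − EA·EB, where EA and EB are the effects of each agent alone. Combination Emax is the second-highest inhibition within the matrix. Inhibition was scaled from CellTiter-Glo 2.0 luminescence, with 0 set by vehicle wells and 1 by blank wells, after 72 hours of two-drug dosing of cells plated in 1536-well plates.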

For assay [1], the system named is COR-L23 (Non-Small Cell Lung Carcinoma). In outline:
as §1

The subject of assay [2] is COR-L95 (Small Cell Lung Carcinoma). In outline: as §1
The test system of assay [3] is CTV-1 (T-Lymphoblastic Leukemia). Put shortly:
as §1

The test system of assay [4] is DB (B-Cell Non-Hodgkin's Lymphoma). Put shortly:
as §1

In assay [5] the test system is DOV13 (Ovarian Carcinoma). In outline: as §1
In another assay the test system is DSH1 (Bladder Carcinoma). Put shortly:
as §1

Assay [6] concerns EM-2 (Chronic Myelogenous Leukemia). Put shortly: as §1
Assay [7] relates to HCC2157 (Breast Carcinoma). Put shortly: as §1
The next assay has as its system J82 (Bladder Carcinoma). In outline:
as §1

In assay [8] the test system is KARPAS-1106P (B-Cell Non-Hodgkin's Lymphoma). In outline:
as §1

The test system of assay [9] is LS-513 (Colorectal Carcinoma). Put shortly:
as §1

The test system of assay [10] is MDA-MB-157 (Breast Carcinoma). Put shortly:
as §1

The test system of assay [11] is MFH-ino (Other Solid Carcinomas). Put shortly:
as §1

The next assay deals with NCI-H2595 (Mesothelioma). Put shortly:
as §1

For assay [12], the system named is OCI-AML2 (Acute Myeloid Leukemia). In outline:
as §1

The test system of another assay is SK-N-FI (Neuroblastoma). In outline: as §1
For assay [13], the system named is SW1990 (Pancreatic Carcinoma). In outline:
as §1

Assay [14] deals with TE-5 (Esophageal Squamous Cell Carcinoma). Put shortly: as §1
In assay [15] the test system is TGBC24TKB (Biliary Tract Carcinoma). Put shortly:
as §1

On to `NC1(C(=O)N[C@@H](CCO)c2ccc(Cl)cc2)CCN(c2ncnc3[nH]ccc23)CC1` [Capivasertib] + C[C@@H]1COCCN1C2=NC(=NC(=C2)C3(CC3)[S@](=N)(=O)C)C4=C5C=CNC5=NC=C4 [AZD6738] (first compound max 10 µM, 7x7, partner max 10 µM), for which the “combination Emax” value was found to be 0.663 in the assay on CAL-78 (Chondrosarcoma); 0.707 in assay [1]; 0.542 in assay [2]; 0.902 in assay [3]; 0.424 in [4]; 0.925 in assay [5]. In addition, the “combination Emax” value in the assay with DSH1 (Bladder Carcinoma) was 0.848; in assay [6], 0.973; in [7], 1; in the assay with J82 (Bladder Carcinoma), 0.65; in assay [8], 0.694; in [9], 0.794. Also, the “combination Emax” value in [10] turned out to be 0.884; in assay [11] it was 0.602; in the assay on NCI-H2595 (Mesothelioma), 0.29; in assay [12], 0.983; in the assay on SK-N-FI (Neuroblastoma), 0.705; in [13] it was 0.498. Further, the “combination Emax” value in assay [14] is 0.721; in assay [15] it was 0.711.

As for `CC1(C)CCC(CN2CCN(c3ccc(C(=O)NS(=O)(=O)c4ccc(NCC5CCOCC5)c([N+](=O)[O-])c4)c(Oc4cnc5[nH]ccc5c4)c3)CC2)=C(c2ccc(Cl)cc2)C1` [Venetoclax] + COc1cc(Nc2ncc3c(n2)-c2ccc(Cl)cc2C(c2c(F)cccc2OC)=NC3)ccc1C(=O)O [Alisertib] (first compound max 1 µM, 7x7, partner max 10 µM), the “combination Emax” value with CAL-78 (Chondrosarcoma) is 0.598; in assay [1], 0.307; in assay [2] it was 0.705; in assay [3] it was 0.976; in [4] it was 0.949; in assay [5] it was 0.693. The “combination Emax” value with DSH1 (Bladder Carcinoma) came to 0.53; in assay [6] it was 0.903; in assay [7], 0.877; in the assay with J82 (Bladder Carcinoma), 0.351; in assay [8], 0.713; in assay [9], 0.55. Also, the “combination Emax” value was found to be 0.649 in [10]; 0.318 in assay [11]; 0.211 in the assay on NCI-H2595 (Mesothelioma); 1 in [12]; 0.666 in the assay with SK-N-FI (Neuroblastoma); 0.415 in assay [13]. Moreover, the figures for the “combination Emax” value in [14] and in assay [15] were 0.137 and 0.638, respectively.

With `CN(CCO)CC[C@H](CSc1ccccc1)Nc1ccc(S(=O)(=O)NC(=O)c2ccc(N3CCC([C@@H](O)c4ccccc4-c4ccc(Cl)cc4)CC3)cc2)cc1S(=O)(=O)C(F)(F)F` [AZD4320] + CCN(CCO)CCCOc1ccc2c(Nc3cc(CC(=O)Nc4cccc(F)c4)[nH]n3)ncnc2c1 [AZD2811] (first compound max 1 µM, 7x7, partner max 1 µM), the “combination Emax” value was 0.703 in the assay with CAL-78 (Chondrosarcoma); 0.15 in assay [1]; 1 in assay [2]; 0.27 in [3]; 0.891 in assay [4]; 0.908 in assay [5]. The “combination Emax” value with DSH1 (Bladder Carcinoma) was 0.819; in assay [6], 0.985; in assay [7], 0.979; with J82 (Bladder Carcinoma), 0.126; in assay [8] it was 0.215; in [9] it was 0.414. Further, the “combination Emax” value is 0.257 in [10]; 0.102 in assay [11]; 0.125 in the assay with NCI-H2595 (Mesothelioma); 1 in assay [12]; 0.206 in the assay with SK-N-FI (Neuroblastoma); 0.183 in assay [13]. Also, the “combination Emax” value in assay [14] stood at 0.478; in assay [15], 0.822.

For the molecule `COc1nnc2ccc(N3CCC(c4ccc(OCCN5CCN(C)C(=O)[C@H]5C)cc4)CC3)nn12` [AZD5153] + Cc1c2c(nn1C)CSCc1cc(n(C)n1)CSc1cc(c3ccccc3c1)OCCCc1c(C(=O)O)n(C)c3c-2c(Cl)ccc13 [AZD5991] (first compound max 1 µM, 7x7, partner max 1 µM), the “combination Emax” value with CAL-78 (Chondrosarcoma) was 0.749; in assay [1], 0.312; in assay [2] it was 0.371; in assay [3], 0.939; in assay [4], 1; in assay [5], 0.487. The “combination Emax” value in the assay with DSH1 (Bladder Carcinoma) was 1; in assay [6], 0.988; in assay [7] it was 1; with J82 (Bladder Carcinoma), 0.791; in assay [8], 1; in assay [9], 0.644. The “combination Emax” value in assay [10] came to 0.993; in assay [11], 0.489; in the assay with NCI-H2595 (Mesothelioma) it was 0.602; in [12], 1; in the assay with SK-N-FI (Neuroblastoma) it was 0.722; in assay [13], 0.109. Moreover, the results for the “combination Emax” value in assay [14] and in [15] were 0.407 and 0.848, respectively.

Turning to `CN(C)CCCOc1ccc(-c2ccc3ncc4c(c3c2)n(C2CCOCC2)c(=O)n4C)cn1` [AZD0156] + C=CCn1c(=O)c2cnc(Nc3ccc(N4CCN(C)CC4)cc3)nc2n1-c1cccc(C(C)(C)O)n1 [AZD1775] (first compound max 1 µM, partner max 1 µM), the “combination Emax” value with CAL-78 (Chondrosarcoma) was 0.428; in [1] it was 0.298; in [2], 0.623; in assay [3], 0.962; in assay [4], 0.891; in [5] it was 0.814. Further, the “combination Emax” value in the assay on DSH1 (Bladder Carcinoma) stood at 0.421; in assay [6] it was 0.902; in assay [7] it was 0.832; with J82 (Bladder Carcinoma), 0.333; in assay [8], 0.874; in assay [9], 0.827. Further, the “combination Emax” value in assay [10] stood at 0.673; in assay [11] it was 0.169; in the assay on NCI-H2595 (Mesothelioma), 0.12; in [12], 0.97; with SK-N-FI (Neuroblastoma) it was 0.722; in assay [13], 0.483. The “combination Emax” value was determined as 0.352 in assay [14] and 0.677 in assay [15].

Take `COc1cccc(OCCCN)c1-c1cc(Nc2cnc(C#N)cn2)n[nH]1` [Prexasertib] + C=CCn1c(=O)c2cnc(Nc3ccc(N4CCN(C)CC4)cc3)nc2n1-c1cccc(C(C)(C)O)n1 [AZD1775] (first compound max 1 µM, partner max 1 µM): the “combination Emax” value in the assay with CAL-78 (Chondrosarcoma) stood at 0.643; in [1] it was 0.652; in [2], 0.736; in assay [3] it was 1; in [4], 0.945; in assay [5] it was 0.971. For the same molecule, the “combination Emax” value in the assay with DSH1 (Bladder Carcinoma) came out at 0.84; in [6] it was 0.986; in [7], 1; in the assay with J82 (Bladder Carcinoma), 0.577; in assay [8], 0.949; in [9], 0.949. For the same molecule, the “combination Emax” value in assay [10] turned out to be 0.969; in assay [11] it was 0.397; with NCI-H2595 (Mesothelioma), 0.307; in [12], 1; in the assay with SK-N-FI (Neuroblastoma), 0.862; in [13], 0.688. Moreover, the “combination Emax” value in [14] was 0.625; in [15] it was 0.896.
